Experimental data from patent US7910568B2, “Derivatives of 4- or 5-aminosalicylic acid” (Antibe Therapeutics Inc., priority 2005, dated 2011).

Tests used:
IL-10 mRNA = test: TNBS-induced colitis in mice, colonic IL-10 mRNA by RT-PCR; type: in vivo; conditions: dose equimolar to 50 mg/kg mesalamine; normalized to GAPDH, ratio to healthy controls
Protocol: (§1) The same model was used as described above. In this example, the effects of mesalamine (50 mg/kg) were compared to those of equimolar doses of Compound XXXV. In addition to measuring the severity of colitis by measuring disease activity score and MPO activity, tissues were processed for measurement of a number of genes for inflammatory cytokines and other mediators.
(§2) In particular, mRNA expression in mice of tumour necrosis factor-alpha (TNF-α), interferon gamma (IFN-γ), colonic interleukin (IL)-1, IL-2, IL-10, IL-12 p40, RANTES, cyclooxygenase (COX)-1, COX-2, constitutive endothelial nitric oxide synthase (eNOS), and inducible NOS (iNOS) was measured as described in Wallace et al. (1999) Gastroenterology 117: 557-566, incorporated herein by reference.
(§3) Briefly, reverse transcription-polymerase chain reaction (RT-PCR) was used to detect and quantify mRNA of the particular cytokine/chemokine/enzyme. Glyceraldehyde-3-phosphate dehydrogenase (GAPDH) was used as the “housekeeping gene” for mRNA expression (i.e., as an internal control). For each sample, the ratio of the amplification of the target gene to the amplification of GAPDH (expression of each is measured by performing densitometry on gels) was obtained. […]

COX-1 mRNA = test: TNBS-induced colitis in mice, colonic COX-1 mRNA by RT-PCR; type: in vivo; conditions: dose equimolar to 50 mg/kg mesalamine; FIG. 13
Protocol: as §1, §2, §3

COX-2 mRNA = test: TNBS-induced colitis in mice, colonic COX-2 mRNA by RT-PCR; type: in vivo; conditions: dose equimolar to 50 mg/kg mesalamine; FIG. 13
Protocol: as §1, §2, §3

eNOS mRNA = test: TNBS-induced colitis in mice, colonic eNOS mRNA by RT-PCR; type: in vivo; conditions: dose equimolar to 50 mg/kg mesalamine; FIG. 14
Protocol: as §1, §2, §3

iNOS mRNA = test: TNBS-induced colitis in mice, colonic iNOS mRNA by RT-PCR; type: in vivo; conditions: dose equimolar to 50 mg/kg mesalamine; FIG. 14
Protocol: as §1, §2, §3

colonic smooth muscle = test: Rat colorectal distension, intrarectal pressure / compliance of the colo-rectum; type: in vivo; conditions: 100 mg/kg i.p.; FIG. 16(b)
Excerpt: In the testing day, rats were sedated with ether inhalation and a 2 cm long latex balloon was inserted intrarectally 2 cm from the anal verge and fixed at the base of the tail. The balloon was connected via a double-barreled cannula to a pressure transducer to continuously monitoring the rectal pressure by a computer (PowerLab PC, A.D. Instruments, Milford, Mass., USA) and to a syringe for inflation/deflation of the balloon. The rats were then housed in a small cage (20×8×8 cm) on an elevated Plexiglas™ platform and allowed to wake up and adapt for 1 hour. After recovery from sedation, animals underwent the CRD procedure and behavioral responses were tested. The night before the experiments, the balloons were inflated and left overnight so the latex stretched and the balloons became compliant. CRD of 20 seconds, performed every 5 minutes, was applied in increment of 0.4 ml starting from 0.4 ml up to 1.6 ml water. […] Behavioral responses during the first and the second set of CRD were assessed and compared. To determine the effect of mesalamine or Compound XXXV on colonic smooth muscle, the compliance of the colo-rectum during CRD was obtained from intracolo-rectal volume and pressure and expressed as mL/mmHg. […]

[1] = system: leukocyte adherence to the vascular endothelium; test: Aspirin-induced leukocyte adherence to the vascular endothelium, intravital microscopy of mesenteric venules; type: in vivo, rat
Protocol: Leukocyte adherence was studied using intravital microscopy, as described in detail previously (Wallace et al., (1993) Am. J. Physiol. 265: 993-998, incorporated hereto by reference). Rats were anesthetized with pentobarbital sodium (60 mg/kg i.p.) and cautery incisions were made along the abdominal region. A tracheotomy was performed to facilitate breathing. The rats were placed in a supine position, and a segment of the mesentery was exteriorized through the abdominal incision. The mesentery was carefully placed over an optically clear viewing pedestal that allowed for trans-illumination of a 2-cm^2 segment of tissue. All exposed tissue was covered with saline-soaked gauze to minimize dehydration. The temperature of the pedestal was kept at 37° C. and the mesentery was superfused with warmed bicarbonate-buffered saline (pH 7.4). An intravital microscope (Nikon L25/0.35) and a ×10 eyepiece were used to observe the mesenteric microcirculation. Post-capillary venules with diameters ranging from 20 to 40 μm were selected for the study. A video camera mounted on the microscope (Panasonic™ digital 5000) projected the image onto a monitor, and the images were recorded for playback analysis using a videocassette recorder. Images of the mesenteric microcirculation were recorded 5 minutes prior to aspirin administration (baseline), at the time of aspirin administration (time 0-5) and every 15 minutes for 60 minutes. Leukocyte adherence was blindly quantified from videotaped images of the vessels made over 5-min periods as the number of leukocytes that remained stationary along the vessel wall for 30 s or more (expressed per 100 μm venule length). Groups of rats (at least 5 in each) were pretreated with Compound XXXV (130 mg/kg), Compound XXVII (100 mg/kg), mesalamine (50 mg/kg), or vehicle 60 min prior to aspirin (or vehicle) administration. These drugs were given intragastrically. In some experiments, rats were treated with glibenclamide (10 mg/kg i.p.) or vehicle 30 min prior to administration of these compounds.

[2] = H2S generation in buffer, liver homogenate and liver homogenate with PAG, sulfide sensitive electrode; type: in vitro ADME, rat; conditions: 1 mM compound, FIG. 21

## Nc1ccc(O)c(C(=O)Oc2ccc(-c3cc(=S)ss3)cc2)c1 [Compound XXXV, 5-Amino-2-hydroxy-benzoic acid 4-(5-thioxo-5H-[1,2]dithiol-3-yl)-phenyl ester]
IL-10 mRNA
  Expression of IL-10 mRNA: did not suppress expression of IL-10 mRNA
COX-1 mRNA
  COX-1 mRNA expression: suppressed
COX-2 mRNA
  COX-2 mRNA expression: suppressed
eNOS mRNA
  eNOS mRNA expression: suppressed
iNOS mRNA
  iNOS mRNA expression: suppressed
Colonic smooth muscle
  Intrarectal pressure: successfully reduced intrarectal pressure
[1]; glibenclamide 10 mg/kg i.p. 30 min prior to the compound, FIG. 19
  Aspirin-induced leukocyte adherence after glibenclamide pretreatment: reversed the inhibitory effect
[1]; intragastric pretreatment 60 min prior to aspirin (XXXV 130 mg/kg, mesalamine 50 mg/kg), glibenclamide 10 mg/kg i.p., FIG. 19
  Aspirin-induced leukocyte adherence: prevented the aspirin-induced increase in leukocyte adherence
[1]; minutes 60-65, XXXV 130 mg/kg, XXVII 100 mg/kg intragastric, FIG. 20
  Aspirin-induced leukocyte adherence, final time period: suppress aspirin-induced leukocyte adherence
[1]; minutes 60-65, glibenclamide 10 mg/kg i.p., FIG. 20
  Aspirin-induced leukocyte adherence, final time period, after glibenclamide pretreatment: reverse this inhibitor effect
[2]; PAG 2 mM, inhibitor of cystathionine γ-lyase
  Effect of PAG (DL-propargylglycine) on H2S generation in liver homogenate: lack of effect
[2]; potassium phosphate buffer pH 7.4, 37° C.
  H2S release in buffer: release H2S spontaneously (in buffer)
[2]; rat liver homogenate 10% (wt/vol)
  H2S release in liver homogenate compared with buffer: greater when in the presence of tissue
